The target of the assay is T1, naphthalene 1,2-dioxygenase (NDO) (Pseudomonas putida, UniProt P0A110).
T1 construct: gene ndoB; wild-type terminal oxygenase component, plasmid pDTG121 in E. coli DE3 Star, no tag mentioned; alpha3beta3 hexamer with Rieske [2Fe-2S] and mononuclear iron; with Naphthalene 1,2-dioxygenase system, small oxygenase component
T1 sequence (P0A110 1-449): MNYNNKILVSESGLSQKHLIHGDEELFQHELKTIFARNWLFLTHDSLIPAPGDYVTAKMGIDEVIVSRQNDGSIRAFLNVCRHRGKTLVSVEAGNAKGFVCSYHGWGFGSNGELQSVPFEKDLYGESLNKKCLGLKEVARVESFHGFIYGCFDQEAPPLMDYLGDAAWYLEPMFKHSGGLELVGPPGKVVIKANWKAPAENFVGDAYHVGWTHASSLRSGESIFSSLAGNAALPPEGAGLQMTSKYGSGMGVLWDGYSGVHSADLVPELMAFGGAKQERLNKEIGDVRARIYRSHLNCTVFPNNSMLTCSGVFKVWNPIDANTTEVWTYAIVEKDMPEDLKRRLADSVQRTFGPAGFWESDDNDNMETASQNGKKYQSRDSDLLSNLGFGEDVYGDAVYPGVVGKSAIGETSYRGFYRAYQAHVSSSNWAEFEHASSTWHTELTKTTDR
T1 sequence (P0A112 1-194 partner): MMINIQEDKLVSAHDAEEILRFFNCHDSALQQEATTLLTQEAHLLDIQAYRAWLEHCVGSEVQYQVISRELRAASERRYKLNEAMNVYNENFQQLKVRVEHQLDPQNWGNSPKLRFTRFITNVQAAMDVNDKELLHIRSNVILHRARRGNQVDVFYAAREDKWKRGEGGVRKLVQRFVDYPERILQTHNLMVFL
Put plainly: X-ray crystal structure (soaked crystal). It is filed as binding. Particulars: active site, multiple orientations; crystals pH 5.0-5.8; soaked at least two weeks.
Regarding `CCOc1ccccc1` [phenetole], the “X-ray crystal structure (soaked crystal)” value is “structures of phenetole, thioanisole and ethylphenylsulfide in complex with NDO were solved”.

Take `CCSc1ccccc1` [ethylphenylsulfide]: the “X-ray crystal structure (soaked crystal)” value is “structures of phenetole, thioanisole and ethylphenylsulfide in complex with NDO were solved”.

With `CSc1ccccc1` [thioanisole], the “X-ray crystal structure (soaked crystal)” value was “structures of phenetole, thioanisole and ethylphenylsulfide in complex with NDO were solved”.

Values taken from paper PMC5619856, “One enzyme, many reactions: structural basis for the various reactions catalyzed by naphthalene 1,2-dioxygenase” (IUCrJ, 2017).
